Assay results from patent publication US20050164234A1, “Methods of using mammalian RNase H and compositions thereof” (priority 1997, published 2005).
Strand notation (5' to 3'): a small letter for the sugar, then the base; units joined by * are phosphorothioate-linked, units joined directly phosphodiester-linked; [ ] holds rarer units or linkages, { } end groups; capitals alone tell only the bases. e = 2'-O-(2-methoxyethyl) (MOE); [5mC] = 5-methylcytosine; d = 2'-deoxy (DNA)

Assays:
human RNase H2 [1] = assay: Antisense inhibition of human RNase H2 expression, Northern blot; format: cell-based; set-up: % of control / % inhibition: concentration or dose not given beside the values; settings: for % inhibition / % of control: RNase H2 expression, Northern blot; for inhibition of human RNase H2 expression: summary of Table 3; for reduction of expression: dose response, A549 cells
Protocol: Total RNA was isolated from different human cell lines (ATCC, Rockville, Md.) using the guanidine isothiocyanate method (21). Ten μg of total RNA was separated on a 1.2% agarose/formaldehyde gel and transferred to Hybond-N+ (Amersham, Arlington Heights, Ill.) followed by fixing using UV crosslinker (Strategene, La Jolla, Calif.). The premade multiple tissue Northern Blot membranes were also purchased from Clontech (Palo Alto, Calif.). To detect RNase H2 mRNA, hybridization was performed by using ^32P-labeled human RNase H II cDNA in Quik-Hyb buffer (Strategene, La Jolla, Calif.) at 68 EC for 2 hours. After hybridization, membranes were washed in a final stringency of 0.1×SSC/0.1% SDS at 60 EC for 30 minutes and subjected to auto-radiography.
A series of antisense oligonucleotides were targeted to the human RNase H2 polynucleotide sequence (SEQ ID NO: 11). These compounds were all 2′-O-methoxyethyl “gapmers” with an 8-nucleotide deoxy gap and a phosphorothioate backbone. Cytosine residues are 5-methyl cytosines. The 2′-O-methoxyethyl (2′MOE) nucleotides are shown in bold.
The oligonucleotides shown in Table 2 were tested by Northern blot analysis for their ability to inhibit expression of human RNase H2. Results are expressed in Table 3.

human RNase H2 [2] = assay: Screen of antisense compounds (gapped oligonucleotides, siRNA) in cells against human RNase H2; format: cell-based; set-up: concentration or dose not given beside the values; settings: percent inhibition of RNase H enzyme levels; target H2
Protocol: Oligonucleotides were identified by screening in cells (Crooke, S. T., 2003, in Burger's Medicinal Chemistry, 6th ed., pp 115-166; Vickers et al., 2003, J. Biol. Chem. 278, 7108-7118).
For this experiment oligoribonucleotides were purchased from Dharmacon Research, Inc. (Boulder Colo.). siRNA duplexes were formed in the solution containing 20 μM each oligoribonucleotide (sense strand shown and antisense strand complement—generally with a one base overhang at each end), 100 mM potassium acetate, 30 mM HEPES-KOH pH 7.4, 2 mM magnesium acetates. Reactions were heated for 1 minute at 90° C. and incubated for 1 hour at 37° C. The control gapped antisense oligonucleotide, is ISIS 29848, […] (SEQ ID NO: 104), where N is a mixture of A, G, C and T. Bold residues are 2′-MOE residues. The siRNA controls are either the single strand sense RNA strand or other RNA duplexes that are not complementary to the target. For transfection of cells, cells were incubated with a mixture of 3 μg/ml lipofectin (Invitrogen, Carlsbad Calif.) per 1-200 nM oligonucleotide or siRNA in OptiMEM medium (Invitrogen). After 4 hours the transfection mixture was aspirated from the cells and replaced with fresh medium containing 10% fetal bovine serum and the cells were incubated at 37° C. in 5% CO2 until harvest or second transfection.

Sequence | % inhibition (human RNase H2 [1]) [%] | % of control (human RNase H2 [1]) [%] | inhibition of human RNase H2 expression (human RNase H2 [1]) | % Inhib (human RNase H2 [2]) [%] | reduction of expression (human RNase H2 [1]; 200 nM) | reduction of expression (human RNase H2 [1]; lowest dose tested 50 nM) [%]
CACAGGCGAACTCAGGCGAC (all C 5-methyl, all phosphorothioate, sugars by position not given here; further chemistry not fully specified) [ISIS 21947, 2′-O-methoxyethyl gapmer, 8-nucleotide deoxy gap, phosphorothioate backbone, targeted to human RNase H2] | 63 | 37 | at least 50% | – | – | –
CGCCTCAGCCGCCACCACCA (all C 5-methyl, all phosphorothioate, sugars by position not given here; further chemistry not fully specified) [ISIS 21946, 2′-O-methoxyethyl gapmer, 8-nucleotide deoxy gap, phosphorothioate backbone, targeted to human RNase H2] | 50 | 50 | at least 50% | – | – | –
CGGTGTCCACGAATACCTGG (all C 5-methyl, all phosphorothioate, sugars by position not given here; further chemistry not fully specified) [ISIS 21951, 2′-O-methoxyethyl gapmer, 8-nucleotide deoxy gap, phosphorothioate backbone, targeted to human RNase H2] | 74 | 26 | at least 50% | – | – | –
GGTAGAGGGCATCTGCTTTG (eG*eG*eT*eA*eG*eA*dG*dG*dG*d[5mC]*dA*dT*d[5mC]*dT*eG*e[5mC]*eT*eT*eT*eG) [ISIS 21953] | 59 | 41 | at least 50% | – | – | –
GACCAUCCUGGAGAAAGAGGC [Si 21958] | – | – | – | 45.8 | – | –
CCCGCTCGCTCTCCAATAGG (all C 5-methyl, all phosphorothioate, sugars by position not given here; further chemistry not fully specified) [ISIS 21949, 2′-O-methoxyethyl gapmer, 8-nucleotide deoxy gap, phosphorothioate backbone, targeted to human RNase H2] | 82 | 18 | at least 50% | – | – | –
CCACCTTGGCACAGATGCTG (all C 5-methyl, all phosphorothioate, sugars by position not given here; further chemistry not fully specified) [ISIS 21954, 2′-O-methoxyethyl gapmer, 8-nucleotide deoxy gap, phosphorothioate backbone, targeted to human RNase H2] | 77 | 23 | at least 50% | – | – | –
CGCGCCTGGTATGTCTCTGG (all C 5-methyl, all phosphorothioate, sugars by position not given here; further chemistry not fully specified) [ISIS 21952, 2′-O-methoxyethyl gapmer, 8-nucleotide deoxy gap, phosphorothioate backbone, targeted to human RNase H2] | 89 | 11 | at least 50% | – | approximately 70% | 60
GCACACTCCCACCTTGCTTC (chemistry not fully specified) [ISIS 21961, 2′-O-methoxyethyl gapmer, 8-nucleotide deoxy gap, phosphorothioate backbone, targeted to human RNase H2] | 7 | 93 | – | 6.1 | – | –
GGUCCAGCUACUUCCUUUUGG [Si 21962] | – | – | – | 0 | – | –
CCTACGTGTGGTTCTCCTTA (antisense e[5mC]*e[5mC]*eT*eA*e[5mC]*eG*dT*dG*dT*dG*dG*dT*dT*d[5mC]*eT*e[5mC]*e[5mC]*eT*eT*eA) [ISIS 21960, 2′-O-methoxyethyl gapmer, 8-nucleotide deoxy gap, phosphorothioate backbone, targeted to human RNase H2] | 92 | 8 | at least 50% | 91.7 | > 80% | 60
CCAGUUUGUCCGGUUCAGCUG [Si 21957] | – | – | – | 42.4 | – | –
CCCAGCCGACAAAGTCCGTG (all C 5-methyl, all phosphorothioate, sugars by position not given here; further chemistry not fully specified) [ISIS 21950, 2′-O-methoxyethyl gapmer, 8-nucleotide deoxy gap, phosphorothioate backbone, targeted to human RNase H2] | 68 | 32 | at least 50% | – | – | –
CCTCTTTCTCCAGGATGGTC (antisense e[5mC]*e[5mC]*eT*e[5mC]*eT*eT*dT*d[5mC]*dT*d[5mC]*d[5mC]*dA*dG*dG*eA*eT*eG*eG*eT*e[5mC]) [ISIS 21958, 2′-O-methoxyethyl gapmer, 8-nucleotide deoxy gap, phosphorothioate backbone, targeted to human RNase H2] | 38 | 62 | – | 38.0 | – | –
CCUGGAACGCGGCCUGGAGUC [Si 21959] | – | – | – | 53.8 | – | –
GAAGCAAGGUGGGAGUGUGCU [Si 21961] | – | – | – | 15.2 | – | –
CAGTTTCTCCACGAATTGCC (antisense e[5mC]*eA*eG*eT*eT*eT*d[5mC]*dT*d[5mC]*d[5mC]*dA*d[5mC]*dG*dA*eA*eT*eT*eG*e[5mC]*e[5mC]) [ISIS 21955, 2′-O-methoxyethyl gapmer, 8-nucleotide deoxy gap, phosphorothioate backbone, targeted to human RNase H2] | 33 | 67 | – | 33.3 | – | –
GGACAATAACAGATGGCGTA (eG*eG*eA*e[5mC]*eA*eA*dT*dA*dA*d[5mC]*dA*dG*dA*dT*eG*eG*e[5mC]*eG*eT*eA) [ISIS 21948] | 62 | 38 | at least 50% | – | – | –
UAAGGAGAACCACACGUAGGG [Si 21960] | – | – | – | 9.9 | – | –
TTTTGTCTTGGGATCATTGG (eT*eT*eT*eT*eG*eT*d[5mC]*dT*dT*dG*dG*dG*dA*dT*e[5mC]*eA*eT*eT*eG*eG) [ISIS 21956] | 63 | 37 | at least 50% | 63.1 | – | –
GGCAAUUCGUGGAGAAACUGC [Si 21955] | – | – | – | 19.2 | – | –
AGCTGAACCGGACAAACTGG (antisense eA*eG*e[5mC]*eT*eG*eA*dA*d[5mC]*d[5mC]*dG*dG*dA*d[5mC]*dA*eA*eA*e[5mC]*eT*eG*eG) [ISIS 21957, 2′-O-methoxyethyl gapmer, 8-nucleotide deoxy gap, phosphorothioate backbone, targeted to human RNase H2] | 68 | 32 | at least 50% | 68.1 | – | –
CAAAAGGAAGTAGCTGGACC (antisense e[5mC]*eA*eA*eA*eA*eG*dG*dA*dA*dG*dT*dA*dG*d[5mC]*eT*eG*eG*eA*e[5mC]*e[5mC]) [ISIS 21962, 2′-O-methoxyethyl gapmer, 8-nucleotide deoxy gap, phosphorothioate backbone, targeted to human RNase H2] | 37 | 63 | – | 36.0 | – | –
ACTCCAGGCCGCGTTCCAGG (antisense eA*e[5mC]*eT*e[5mC]*e[5mC]*eA*dG*dG*d[5mC]*d[5mC]*dG*d[5mC]*dG*dT*eT*e[5mC]*e[5mC]*eA*eG*eG) [ISIS 21959, 2′-O-methoxyethyl gapmer, 8-nucleotide deoxy gap, phosphorothioate backbone, targeted to human RNase H2] | 82 | 18 | at least 50% | 81.2 | – | –
